Experiments:
[1] = tested on: HAPI cells; type: cell-based, rat
Protocol: Figure 5 Toxicity studies of RK-33 in mice • Following injection of 20 mg/kg of RK-33, twice a week for 7 weeks, extensive histopathological examination was carried out following necropsy. Identical patterns were observed both in the control and in the treated mice (n = 2). Samples were stained with H&E. Scale bar is 50 μm. • Pharmacokinetics of RK-33 in SCID mice at various time intervals. Results are mean ± SD from 5 mice. LC-MS/MS method was used to determine concentration of RK-33 in mouse plasma and tissue. • Liquid chromatography–mass spectrometry (LC-MS/MS) analysis was performed to determine different metabolites of RK-33. • RK-33 and metabolites characterized by LC-MS/MS in human liver microsomes using the scan mode function of the LC-MS/MS. • HAPI cells were treated with RK-33 (10 μM), HA14-1 (25 μM), or DMSO vehicle, followed by oligomycin (oligo, 0.5 μg/ml), FCCP (3 μM), and antimycin A (AA, 1 μM) while oxygen consumption rate (OCR) was measured. Pyruvate (10 mM) was added in combination with FCCP to ensure that substrate supply was not rate-limiting for maximal OCR. Data are mean ± SD from 2 to 3 wells and representative of independent experiments performed with two different HAPI passages. OCR is baseline-normalized to the point prior to drug or vehicle addition. • HAPI microglial cells were incubated for 1 h in glucose-free XF24 assay medium that was supplemented with 2-deoxyglucose (50 mM) and pyruvate (10 mM). RK-33 (10 μM), oligomycin (0.5 μg/ml), or vehicle control was additionally present as indicated. Results are mean ± SD from 12 replicates pooled from experiments using two consecutive passages. Significance was assessed by two-sided, unpaired t-test. […]
Oxygen consumption measurements were performed using an XF24 Extracellular Flux Analyzer (Seahorse Bioscience, Billerica, MA) as previously described (Wu et al, [2007]; Clerc & Polster, [2012]). […] The ATP bioluminescent somatic cell assay kit (Sigma-Aldrich) was employed for the determination of ATP levels by luminescence using a FLUOstar OPTIMA multimodal plate reader (BMG LABTECH, Inc., Cary, NC). […]

[2] = tested on: HAPI cells; type: cell-based, rat; conditions: 0.5 μg/ml, 1 h

For CCCCCC[C@H]1C(=O)O[C@H](C)[C@H](NC(=O)c2cccc(NC=O)c2O)C(=O)O[C@@H](C)[C@@H]1OC(=O)CC(C)C [antimycin A], the “oxygen consumption in the presence of all drugs” value ([1]; 1 μM) was “potently inhibited”.

With CC[C@H]1/C=C/C=C/C[C@@H](C)[C@H](O)[C@@](C)(O)C(=O)[C@@H](C)[C@H](O)[C@@H](C)C(=O)[C@@H](C)[C@H](O)[C@@H](C)/C=C/C(=O)O[C@@H]2[C@H](C)[C@H](CC1)O[C@]1(CC[C@H](C)[C@H](C[C@@H](C)O)O1)[C@H]2C [oligomycin] the “decrease of total cellular ATP” value [2] was “approximately 70%”.

For CCOC(=O)C1=C(N)Oc2ccc(Br)cc2C1C(C#N)C(=O)OCC (stereo not shown) [HA14-1], the “OCR measured in the presence of FCCP” value ([1]; 25 μM, positive control) was “decreased OCR measured in the presence of FCCP” and the oligomycin-insensitive oxygen consumption ([1]; 25 μM, positive control) was “elevated oligomycin-insensitive oxygen consumption”.

— publication PMC4492822 (EMBO Molecular Medicine, 2015)
